# Reference: patent US20100261162A1, “Methods of assaying for telomerase activity and compositions related to same” (priority 2005, published 2010)
# Target: T1, telomerase (HEK293T cell lysates) (Homo sapiens, UniProt O14746)
# T1 construct: effect of TBT oligonucleotide length in HEK293T cell lysates; endogenous in cells; host or cells: HEK293T cell lysate (CHAPS lysis)
# Experiment: TBT assay, effect of telomerase oligonucleotide template length
# Assay type: biochemical
# Conditions: TBT luminescence, short (0.5 repeat), 2.5 repeat and 3.5 repeat oligonucleotides compared
# Text: FIG. 16 illustrates a graphical representation showing the effect of TBT oligonucleotide length in HEK293T cell lysates according to an embodiment of the present invention.
# Design of the telomerase-specific oligonucleotide template attached to the magnetic bead is critical for maximizing sensitivity of the TBT assay. The minimal recognition DNA sequence for base-pairing between the RNA component of telomerase and the telomere end is 9 bases—TAGGGTTAG, however, multiple repeats of this sequence more accurately depict the nature of chromosome telomere ends and the scanning nature of enzymes used to achieve accurate base-pair recognition. Telomerase templates include those ranging from 1.5-3 hexameric repeats.
# Three forms of the oligonucleotide were tested. A short version containing a partial (0.5) repeat, a slightly longer version containing 2.5 repeats, and a longer version with 3.5 repeats. […] This increased dynamic range is likely to translate into increased sensitivity of the assay.
# T1 sequence (O14746 whole entry): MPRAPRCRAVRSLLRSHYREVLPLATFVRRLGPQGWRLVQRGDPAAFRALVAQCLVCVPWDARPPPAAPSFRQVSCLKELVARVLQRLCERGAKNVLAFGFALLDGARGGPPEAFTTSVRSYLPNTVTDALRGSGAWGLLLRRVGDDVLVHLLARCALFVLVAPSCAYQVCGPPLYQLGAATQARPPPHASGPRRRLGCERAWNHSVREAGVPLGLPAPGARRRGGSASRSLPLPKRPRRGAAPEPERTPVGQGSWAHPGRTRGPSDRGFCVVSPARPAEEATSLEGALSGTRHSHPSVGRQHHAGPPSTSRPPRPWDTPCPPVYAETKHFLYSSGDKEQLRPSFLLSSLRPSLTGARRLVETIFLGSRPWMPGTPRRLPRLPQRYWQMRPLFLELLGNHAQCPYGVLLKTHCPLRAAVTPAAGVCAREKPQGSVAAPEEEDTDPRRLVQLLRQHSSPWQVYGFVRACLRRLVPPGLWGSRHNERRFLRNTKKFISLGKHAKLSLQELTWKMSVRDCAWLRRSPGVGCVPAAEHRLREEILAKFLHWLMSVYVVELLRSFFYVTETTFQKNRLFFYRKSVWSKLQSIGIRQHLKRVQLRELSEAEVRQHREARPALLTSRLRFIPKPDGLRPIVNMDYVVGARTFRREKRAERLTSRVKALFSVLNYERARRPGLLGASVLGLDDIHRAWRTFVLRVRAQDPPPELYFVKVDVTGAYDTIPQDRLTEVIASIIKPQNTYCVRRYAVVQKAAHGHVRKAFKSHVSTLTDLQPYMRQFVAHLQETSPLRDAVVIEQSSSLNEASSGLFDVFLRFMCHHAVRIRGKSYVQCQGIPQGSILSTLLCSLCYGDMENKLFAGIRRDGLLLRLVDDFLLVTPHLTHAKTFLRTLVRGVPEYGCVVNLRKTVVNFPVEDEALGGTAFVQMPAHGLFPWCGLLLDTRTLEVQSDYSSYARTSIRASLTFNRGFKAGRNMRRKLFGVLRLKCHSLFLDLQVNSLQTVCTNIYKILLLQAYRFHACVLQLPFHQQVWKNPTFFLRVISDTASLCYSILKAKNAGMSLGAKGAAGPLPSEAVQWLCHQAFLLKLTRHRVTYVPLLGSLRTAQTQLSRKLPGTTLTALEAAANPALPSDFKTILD
substance,measurement,value
"longer version: Long human telomerase recognition nucleotide sequence, 5′ thiol-linked, 3.5 repeats, attached to magnetic bead (DNA TTTTTTAATCCGTCGAGCAGAGTTAGGGTTAGGGTTAGGGTTAGGGTTAG; 5' thiol linker, attached to magnetic bead, further chemistry not given here)",absolute signal relative to the background signal (no telomerase extract),better absolute signal relative to the background signal
